Data published in patent US20120316245A1, “CO-CRYSTALS OF AGOMELATINE, A PROCESS FOR THERE PREPARATION AND PHARMACEUTICAL COMPOSITIONS CONTAINING THEM” (LES LABORATOIRES SERVIER, priority 2011, published 2012).

Assay: Measurement of the dissolution rate of the co-crystals (tDISS apparatus, pION)
Type: physicochemical
Details: 37° C., stirring speed 700 rpm
Text: The results obtained are collated in the following tables and are expressed as percentage increases in the dissolution rate of the co-crystal compared to the dissolution rate obtained for agomelatine of form II contained in the marketed Valdoxan® form: [formula]

Structure (SMILES)	percentage increase in the dissolution rate of the co-crystal compared to agomelatine of form II (Valdoxan) (0.01 N HCl)	percentage increase in the dissolution rate of the co-crystal compared to agomelatine of form II (Valdoxan) (pH 6.8 buffer)
COc1ccc2cccc(CCNC(C)=O)c2c1.O=C(O)CC(O)(CC(=O)O)C(=O)O [Compound of Example 1, Co-Crystal of Agomelatine/Citric Acid (1/1)]	+25%	+70%
COc1ccc2cccc(CCNC(C)=O)c2c1.COc1ccc2cccc(CCNC(C)=O)c2c1.O=C(O)c1cc(O)c(O)c(O)c1 [Compound of Example 2, Co-Crystal of Agomelatine/Gallic Acid (2/1)]	+37%	+29%
COc1ccc2cccc(CCNC(C)=O)c2c1.O=C(O)C=CC(=O)O [Compound of Example 3, Co-Crystal of Agomelatine/Maleic Acid (1/1)]	−26%	−4%
COc1ccc2cccc(CCNC(C)=O)c2c1.O=C(O)CC(=O)O [Compound of Example 4, Co-Crystal of Agomelatine/Malonic Acid (1/1)]	−55%	−21%
COc1ccc2cccc(CCNC(C)=O)c2c1.COc1ccc2cccc(CCNC(C)=O)c2c1.O=C(O)c1ccc(O)cc1 [Compound of Example 5, Co-Crystal of Agomelatine/Para-Hydroxybenzoic Acid (2/1)]	+97%	+89%
COc1ccc2cccc(CCNC(C)=O)c2c1.O=C(O)c1ccc(O)cc1.O=C(O)c1ccc(O)cc1 [Compound of Example 6, Co-Crystal of Agomelatine/Para-Hydroxybenzoic Acid (1/2)]	+19%	+46%
COc1ccc2cccc(CCNC(C)=O)c2c1.COc1ccc2cccc(CCNC(C)=O)c2c1.O=C(O)C(=O)O [Compound of Example 7, Co-Crystal of Agomelatine/Oxalic Acid (2/1)]	+1.5%	+33%
COc1ccc2cccc(CCNC(C)=O)c2c1.O=C(O)CCCC(=O)O [Compound of Example 8, Co-Crystal of Agomelatine/Glutaric Acid (1/1)]	−42%	−29%
COc1ccc2cccc(CCNC(C)=O)c2c1.O=C(O)CCC(=O)C(=O)O [Compound of Example 9, Co-Crystal of Agomelatine/Ketoglutaric Acid (1/1)]	−47%	−32%
COc1ccc2cccc(CCNC(C)=O)c2c1.O=C(O)CO [Compound of Example 10, Co-Crystal of Agomelatine/Glycolic Acid (1/1)]	−30%	−30%
